Among the data in patent US12065445B2, “CDK2 inhibitors and methods of using the same” (Cedilla Therapeutics, Inc., priority 2021, dated 2024) are IC50 values, retold here.

Some results are limits rather than exact numbers.

This assay concerns Kuramochi cells. Description: BrdU Cell Proliferation Assay. The assay is classed as cell-based. To be noted: read-out: BrdU - KURAMOCHI.1: IC50. An outline of the steps:
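Signal is 450 nm absorbance from a peroxidase anti-BrdU ELISA after a 1-hour BrdU label, background-subtracted and normalized to DMSO-treated wells. Kuramochi cells (2,000 per well) had been exposed to compound for 4 days. Dosing used a 10-point dose response in 3-fold steps.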
With `CNC(=O)[C@@H](NC(=O)[C@H]1CN(C(=O)c2cnn(Cc3ccccc3)c2)CC12CN(C(=O)CC(F)(F)F)C2)[C@@H](C)OCc1ccccc1` [I-87B], the IC50 is > 10 µM. Under `CNC(=O)[C@@H](NC(=O)[C@@H]1CN(Cc2cnc[nH]2)CC12CN(C(=O)[C@H]1CC1(C)C)C2)[C@@H](C)OCc1ccccc1` [I-77A, (S)-6-((1H-imidazol-5-yl)methyl)-N-((2S,3R)-3-(benzyloxy)-1-(methylamino)-1-oxobutan-2-yl)-2-((S)-2,2-dimethylcyclopropane-1-carbonyl)-2,6-diazaspiro[3.4]octane-8-carboxamide] stands > 10 µM. On to `C[C@@H](OCc1ccccc1)[C@H](NC(=O)C1CN(C(=O)c2cnn(Cc3ccccc3)c2)CC12CN(C(=O)[C@H]1CC1(C)C)C2)C(=O)NCCO` (some centres unmarked) [I-30], for which the 50% inhibitory concentration (IC50) was > 10 µM.

As to `CNC(=O)[C@@H](NC(=O)[C@@H]1CN(C(=O)c2cnn(Cc3ccccc3)c2)CC12CN(C(=O)C(C)(C)F)C2)[C@@H](C)OCc1ccccc1` [I-90A], the IC50 is > 10 µM.

For the compound `C[C@@H](OCc1ccccc1)[C@H](NC(=O)C1CN(C(=O)c2cnn(Cc3ccccc3)c2)CC12CN(C(=O)[C@H]1CC1(C)C)C2)C(=O)N1CCCC(CO)C1` (some centres unmarked) [I-98], the IC50 was > 10 µM. For `CCCC(=O)N1CC2(C1)CN(C(=O)c1cnn(Cc3ccccc3)c1)C[C@@H]2C(=O)N[C@H](C(=O)NC)[C@@H](C)OCc1ccccc1` [I-60B] the value was > 10 µM.

As to `CNC(=O)[C@@H](NC(=O)[C@@H]1CN(C(=O)c2cnn(CC3CCNCC3)c2)CC12CN(C(=O)[C@H]1CC1(C)C)C2)[C@@H](C)OCc1ccccc1` [I-19A], the IC50 is > 10 µM.

For `CNC(=O)[C@@H](NC(=O)[C@@H]1CN(C(=O)c2cncs2)CC12CN(C(=O)CC1CC1)C2)[C@@H](C)OCC1CCCCC1` [I-103A], the IC50 is > 10 µM. Under `CNC(=O)[C@@H](NC(=O)[C@@H]1CN(C(=O)c2scnc2C)CC12CN(C(=O)[C@H]1CC1(C)C)C2)[C@@H](C)OCC1CCCCC1` [I-160A] stands 0.5 to 5 µM; under `C[C@@H](O)[C@H](NC(=O)[C@@H]1CN(C(=O)c2cnn(C)c2)CC12CN(C(=O)[C@H]1CC1(C)C)C2)C(=O)N1CCCCC1` [I-305], 0.5 to 5 µM. For `CNC(=O)[C@@H](NC(=O)[C@@H]1CN(C(=O)c2cnn(Cc3ccccc3)c2)CC12CN(C(=O)[C@H]1CC1(C)C)C2)[C@@H](C)OCc1cccnc1` [I-247] the value was > 10 µM; for `CNC(=O)[C@@H](NC(=O)[C@H]1CN(C(=O)c2cnn(CC(F)(F)F)c2)CC12CN(C(=O)CC1CC1)C2)[C@@H](C)OCc1ccccc1` [I-43B], > 10 µM. Under `C[C@@H](OCc1ccccc1)[C@H](NC(=O)C1CN(C(=O)c2cnn(Cc3ccccc3)c2)CC12CN(C(=O)[C@H]1CC1(C)C)C2)C(=O)NCC#CCO` (some centres unmarked) [I-20] stands > 10 µM; under `C[C@@H](OCC1CCCCC1)[C@H](NC(=O)[C@@H]1CN(C(=O)c2cnn(Cc3ccccc3)c2)CC12CN(C(=O)[C@H]1CC1(C)C)C2)C(=O)N1CC(CN)C1` [I-239], > 10 µM; under `CNC(=O)[C@@H](NC(=O)[C@H]1CN(C(=O)c2cnco2)CC12CN(C(=O)[C@H]1CC1(C)C)C2)[C@@H](C)OCc1ccccc1` [I-39B], > 10 µM. As for `CNC(=O)[C@@H](NC(=O)[C@H]1CN(C(=O)c2cnn(Cc3ccccc3)c2)CC12CN(C(=O)C(C)(C)C)C2)[C@@H](C)OCc1ccccc1` [I-65B], the IC50 is > 10 µM. Regarding `C[C@@H](OCc1ccccc1)[C@H](NC(=O)C1CN(C(=O)c2cnn(Cc3ccccc3)c2)CC12CN(C(=O)[C@H]1CC1(C)C)C2)C(=O)NCC#CCN` (some centres unmarked) [I-28], the IC50 is > 10 µM.

With `CNC(=O)[C@@H](NC(=O)[C@H]1CN(C(=O)c2sc(C(C)C)nc2C)CC12CN(C(=O)[C@H]1CC1(C)C)C2)[C@@H](C)OCC1CCCCC1` [I-227B], the IC50 is > 10 µM.

`C[C@@H](OCc1ccccc1)[C@H](NC(=O)C1CN(C(=O)c2cnn(Cc3ccccc3)c2)CC12CN(C(=O)[C@H]1CC1(C)C)C2)C(=O)N1CCC(F)(F)CC1` (some centres unmarked) [I-85]: the half-inhibitory concentration (IC50) was in the range of 0.5 to 5 µM. In the case of `CNC(=O)[C@@H](NC(=O)[C@H]1CN(Cc2cnc[nH]2)CC12CN(C(=O)[C@H]1CC1(C)C)C2)[C@@H](C)OCc1ccccc1` [I-77B], the IC50 was > 10 µM.

Consider `CNC(=O)[C@@H](NC(=O)[C@@H]1CN(C(=O)c2cnn(Cc3ccccc3)c2)CC12CN(C(=O)CC(F)(F)F)C2)[C@@H](C)OCc1ccccc1` [I-87A], for which the half-inhibitory concentration (IC50) was > 10 µM. Consider `C[C@@H](OCc1ccccc1)[C@H](NC(=O)C1CN(C(=O)c2cnn(Cc3ccccc3)c2)CC12CN(C(=O)[C@H]1CC1(C)C)C2)C(=O)NCCN` (some centres unmarked) [I-31], for which the IC50 is > 10 µM.

For `C[C@@H](OCc1ccccc1)[C@H](NC(=O)[C@H]1CN(C(=O)c2cnn(Cc3ccccc3)c2)CC12CN(C(=O)[C@H]1CC1(C)C)C2)C(N)=O` [I-176B], the half-maximal inhibitory concentration (IC50) was > 10 µM. For `C[C@@H]1C[C@H](C)CN(C(=O)[C@@H](NC(=O)C2CN(C(=O)c3cn[nH]c3)CC23CN(C(=O)[C@H]2CC2(C)C)C3)[C@@H](C)OCc2ccccc2)C1` (some centres unmarked) [I-124], the concentration for half-maximal inhibition (IC50) is > 10 µM.

Regarding `CNC(=O)[C@@H](NC(=O)[C@H]1CN(C(=O)c2cnn(Cc3ccccc3)c2)CC12CN(C(=O)C(C)(C)C)C2)[C@@H](C)OCC1CCCCC1` [I-174B], the IC50 was > 10 µM. Under `CC1(C)C[C@@H]1C(=O)N1CC2(CN(C(=O)c3cnn(Cc4ccccc4)c3)C[C@@H]2C(=O)Nc2ccc(Cc3ccccc3)cc2)C1` [I-84B] stands 5 to 10 µM. Under `CNC(=O)[C@@H](NC(=O)[C@H]1CN(C(=O)C2CCOCC2)CC12CN(C(=O)[C@H]1CC1(C)C)C2)[C@@H](C)OCc1ccccc1` [I-38B] stands > 10 µM.

With `CNC(=O)[C@@H](NC(=O)[C@@H]1CN(C(=O)c2cnn(Cc3ccccc3)c2)CC12CN(C(=O)CC(C)C)C2)[C@@H](C)OCc1ccccc1` [I-69A], the IC50 was > 10 µM. Under `C[C@@H](OCC1CCC(F)(F)CC1)[C@H](NC(=O)[C@@H]1CN(C(=O)c2cnn(Cc3ccc(F)cc3)c2)CC12CN(C(=O)C1(C(F)(F)F)CC1)C2)C(=O)N1CCC(F)(F)CC1` [I-190A] stands ≤ 0.5 µM; under `CC1(C)C[C@@H]1C(=O)N1CC2(CN(C(=O)c3cnn(Cc4ccccc4)c3)C[C@H]2C(=O)N[C@@H]2CCCN(C(=O)C3CCCCC3)C2)C1` [I-215], > 10 µM. Regarding `CNC(=O)[C@@H](NC(=O)[C@@H]1CN(Cc2ccccn2)CC12CN(C(=O)[C@H]1CC1(C)C)C2)[C@@H](C)OCc1ccccc1` [I-40A], the IC50 was > 10 µM. With `CNC(=O)[C@@H](NC(=O)[C@H]1CN(C(=O)c2cnn(Cc3ccc(F)cc3)c2)CC12CN(C(=O)[C@H]1CC1(C)C)C2)[C@@H](C)OCc1ccc(F)cc1` [I-136B], the IC50 was > 10 µM. As for `CNC(=O)[C@@H](NC(=O)[C@H]1CN(C(=O)c2cccnc2)CC12CN(C(=O)[C@H]1CC1(C)C)C2)[C@@H](C)OCc1ccccc1` [I-42B], the IC50 is > 10 µM.

For `CNC(=O)[C@@H](NC(=O)[C@@H]1CN(C(=O)c2cnn(Cc3ccccc3)c2)CC12CN(C(=O)C1(CCOC)CC1)C2)[C@@H](C)OCc1ccccc1` [I-102A], the half-inhibitory concentration (IC50) was > 10 µM. Under `CC1(C)C[C@@H]1C(=O)N1CC2(CN(C(=O)c3cnn(Cc4ccccc4)c3)C[C@H]2C(=O)N[C@@H]2CC[C@@H]2O)C1` [I-201B] stands > 10 µM; under `COCC1CCCN(C(=O)[C@@H](NC(=O)C2CN(C(=O)c3cnn(Cc4ccccc4)c3)CC23CN(C(=O)[C@H]2CC2(C)C)C3)[C@@H](C)OCc2ccccc2)C1` (some centres unmarked) [I-64], 0.5 to 5 µM.

As to `CNC(=O)[C@@H](NC(=O)[C@H]1CN(C(=O)c2cncs2)CC12CN(C(=O)[C@H]1CC1(C)C)C2)[C@@H](C)OCC1CCCCC1` [I-129B], the IC50 is > 10 µM. Under `CNC(=O)[C@@H](NC(=O)[C@H]1CN(C(=O)c2cnn(CC3CCNCC3)c2)CC12CN(C(=O)[C@H]1CC1(C)C)C2)[C@@H](C)OCc1ccccc1` [I-19B] stands > 10 µM; under `CNC(=O)[C@@H](NC(=O)[C@@H]1CN(C(=O)c2cnn(Cc3ccccc3)c2)CC12CN(C(=O)C1(C#N)CC1)C2)[C@@H](C)OCc1ccccc1` [I-73A], > 10 µM.

As for `CO[C@H](C)[C@H](NC(=O)[C@@H]1CN(C(=O)c2cnn(C)c2)CC12CN(C(=O)[C@H]1CC1(C)C)C2)C(=O)N1CCCCC1` [I-303], the 50% inhibitory concentration (IC50) was > 10 µM. For `CNC(=O)[C@@H](NC(=O)[C@H]1CN(Cc2ccccn2)CC12CN(C(=O)[C@H]1CC1(C)C)C2)[C@@H](C)OCc1ccccc1` [I-40B], the half-maximal inhibitory concentration (IC50) is > 10 µM. Under `C[C@@H](OCc1ccccc1)[C@H](NC(=O)C1CN(C(=O)c2cnn(Cc3ccccc3)c2)CC12CN(C(=O)[C@H]1CC1(C)C)C2)C(=O)NCCC(=O)O` (some centres unmarked) [I-29] stands > 10 µM. For `CNC(=O)[C@@H](NC(=O)C1CN(C(=O)c2cnn(Cc3ccccc3)c2)CC12CN(C(=O)C1CC1(C)C)C2)[C@@H](C)OCC1CCCCC1` (mixture of isomers) [I-12] the value was 0.5 to 5 µM; for `Cc1noc([C@H](C)NC(=O)[C@H]2CN(C(=O)c3cnn(Cc4ccccc4)c3)CC23CN(C(=O)[C@H]2CC2(C)C)C3)n1` [I-158B], > 10 µM; for `CNC(=O)[C@@H](NC(=O)[C@H]1CN(C(=O)c2cnn(Cc3ccccc3)c2)CC12CN(C(=O)CC1CC1)C2)[C@@H](C)OCC1CCCCC1` [I-56B], > 10 µM. For `CC1(C)C[C@@H]1C(=O)N1CC2(CN(C(=O)c3cnn(Cc4ccccc4)c3)C[C@H]2C(=O)N[C@@H]2CCCN(CC3CCCCC3)C2)C1` [I-212] the value was > 10 µM.

For the compound `CC1(C)C[C@@H]1C(=O)N1CC2(CN(C(=O)c3cnn(Cc4ccccc4)c3)C[C@H]2C(=O)N[C@H]2CCN(c3ccccc3)C2)C1` [I-206], the IC50 was > 10 µM. Under `CNC(=O)[C@@H](NC(=O)[C@H]1CN(C(=O)c2cnn(Cc3ccccc3)c2)CC12CN(C(=O)C1(C)CC1)C2)[C@@H](C)OCc1ccccc1` [I-67B] stands > 10 µM.

Turning to `CNC(=O)[C@@H](NC(=O)[C@H]1CN(C(=O)c2cnn(Cc3ccccc3)c2)CC12CN(C(=O)C1(C3CC3)CC1)C2)[C@@H](C)OCc1ccccc1` [I-114B], the IC50 was > 10 µM.

As to `CC1(C)C[C@@H]1C(=O)N1CC2(CN(C(=O)c3cnn(Cc4ccccc4)c3)C[C@@H]2C(=O)Nc2ccc(-c3ccccc3)cc2)C1` [I-81B], the IC50 is 5 to 10 µM.
